One assay deals with Carbonic anhydrase 12 (Homo sapiens, UniProt O43570).
The next assay concerns the target Carbonic anhydrase 9 (Homo sapiens, UniProt Q16790). The assay can be described thus: Inhibition of human carbonic anhydrase-9 by stopped flow CO2 hydrase assay.

Here are results for three compounds from ChEMBL document CHEMBL2429841, “Effect of incorporating a thiophene tail in the scaffold of acetazolamide on the inhibition of human carbonic anhydrase isoforms I, II, IX and XII” (Bioorg Med Chem Lett, 2013).

Chain of Carbonic anhydrase 12 (O43570 whole entry): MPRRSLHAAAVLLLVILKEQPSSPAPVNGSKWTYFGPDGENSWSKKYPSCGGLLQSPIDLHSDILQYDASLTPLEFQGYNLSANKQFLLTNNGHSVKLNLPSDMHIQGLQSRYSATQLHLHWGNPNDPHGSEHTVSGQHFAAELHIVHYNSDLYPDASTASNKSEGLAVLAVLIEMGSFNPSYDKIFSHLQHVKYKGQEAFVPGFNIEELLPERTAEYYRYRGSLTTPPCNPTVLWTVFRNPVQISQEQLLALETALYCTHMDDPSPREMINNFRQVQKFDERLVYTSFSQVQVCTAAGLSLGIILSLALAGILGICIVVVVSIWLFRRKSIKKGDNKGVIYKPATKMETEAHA
Description for Carbonic anhydrase 12: Inhibition of human carbonic anhydrase-12 by stopped flow CO2 hydrase assay

Broadly, the Ki is a measure of affinity in units of concentration, obtained from inhibition or displacement. Higher therefore signals weaker binding. With `NS(=O)(=O)c1ccc(NC(=O)Cc2cccs2)cc1`, the results for the Ki on Carbonic anhydrase 12 and on Carbonic anhydrase 9 were 21 nM and 19 nM, respectively.
On the same counts, the results for `CCC[C@H](C(=O)Nc1ccc(S(N)(=O)=O)cc1)C(C)(C)C` are 78 nM and 96 nM.
With `NS(=O)(=O)c1ccc(NC(=O)Cc2ccccc2)cc1`, the figures for the Ki on Carbonic anhydrase 12 and at Carbonic anhydrase 9 were 71 nM and 84 nM, respectively.
